Source: BindingDB's records for doi:10.1021/jm970021c (Warner-Lambert, 1997)

Assay: Agonist activation of human dopamine receptor stimulating mitogenesis in Dopamine receptor D4-transfected CHO pro-5 cells using [3H]thymidine as radioligand

Structure (SMILES): N#Cc1ccccc1N1CCN(CNC(=O)c2cccc(Cl)c2)CC1 [3-Chloro-N-[4-(2-cyano-phenyl)-piperazin-1-ylmethyl]-benzamide]
- EC50: 0.0053 µM

Structure (SMILES): COc1ccccc1N1CCN(CNC(=O)c2cccc(Cl)c2)CC1 [3-Chloro-N-[4-(2-methoxy-phenyl)-piperazin-1-ylmethyl]-benzamide]
- EC50: 0.015 µM

Structure (SMILES): O=C(NCN1CCN(c2ccccc2Cl)CC1)c1ccc(Cl)cc1 [4-Chloro-N-[4-(2-chloro-phenyl)-piperazin-1-ylmethyl]-benzamide]
- EC50: 0.0084 µM

Structure (SMILES): N#Cc1ccccc1N1CCN(CNC(=O)c2ccc(Cl)cc2)CC1 [4-Chloro-N-[4-(2-cyano-phenyl)-piperazin-1-ylmethyl]-benzamide]
- EC50: > 0.0039 µM

Structure (SMILES): COc1ccccc1N1CCN(CNC(=O)c2ccc(Cl)cc2)CC1 [4-Chloro-N-[4-(2-methoxy-phenyl)-piperazin-1-ylmethyl]-benzamide]
- EC50: 0.0084 µM

Structure (SMILES): Cc1cccc(C(=O)NCN2CCN(c3ccccc3Cl)CC2)c1 [N-[4-(2-Chloro-phenyl)-piperazin-1-ylmethyl]-3-methyl-benzamide]
- EC50: 0.016 µM

Structure (SMILES): Cc1ccc(C(=O)NCN2CCN(c3ccccc3Cl)CC2)cc1 [N-[4-(2-Chloro-phenyl)-piperazin-1-ylmethyl]-4-methyl-benzamide]
- EC50: 0.218 µM

Structure (SMILES): O=C(NCN1CCN(c2ccccc2Cl)CC1)c1ccccc1 [N-[4-(2-Chloro-phenyl)-piperazin-1-ylmethyl]-benzamide]
- EC50: 0.106 µM

Structure (SMILES): Cc1ccc(C(=O)NCN2CCN(c3ccccc3C#N)CC2)cc1 [N-[4-(2-Cyano-phenyl)-piperazin-1-ylmethyl]-4-methyl-benzamide]
- EC50: 0.0012 µM

Structure (SMILES): N#Cc1ccccc1N1CCN(CNC(=O)c2ccccc2)CC1 [N-[4-(2-Cyano-phenyl)-piperazin-1-ylmethyl]-benzamide]
- EC50: 0.024 µM

Structure (SMILES): COc1ccccc1N1CCN(CNC(=O)c2cccc(C)c2)CC1 [N-[4-(2-Methoxy-phenyl)-piperazin-1-ylmethyl]-3-methyl-benzamide]
- EC50: 0.013 µM

Structure (SMILES): COc1ccccc1N1CCN(CNC(=O)c2ccc(C)cc2)CC1 [N-[4-(2-Methoxy-phenyl)-piperazin-1-ylmethyl]-4-methyl-benzamide]
- EC50: 0.0034 µM

Structure (SMILES): COc1ccccc1N1CCN(CNC(=O)c2ccccc2)CC1 [N-[4-(2-Methoxy-phenyl)-piperazin-1-ylmethyl]-benzamide]
- EC50: 0.031 µM
